Experimental data: US9949948B2, “Artemisinin and its derivatives for use in the treatment of trauma haemorrhage and associated conditions” (Queen Mary University of London, priority 2011, dated 2018)

Tests used:
Type in all cases: in vivo, Wistar rats
burn injury rats = experiment: Organ injury and dysfunction induced by burn injury in the rat; details: 3 mg/kg i.v. 30 min prior to and 30 min after burn injury
Protocol: Twenty-two male Wistar rats (Harlan, Udine, Italy) weighing 300 to 350 g were anaesthetised with sodium pentobarbital (Eutasil™, 60 mg/kg i.p.; Sanofi Veterinária, Algés, Portugal), which was supplemented as required. Anaesthetised rats were shaved (dorsum and abdomen) and placed onto a thermostatically controlled heating mat (Harvard Apparatus Ltd, Kent, U.K.) and body temperature maintained at 37±1° C. by means of a rectal probe attached to a homeothermic blanket. A tracheotomy was performed to maintain airway patency and to facilitate spontaneous respiration. Thirty minutes prior to burn injury, rats were treated with vehicle or drug, as described in section 3.2. To induce burn injury, a 60% third degree skin burn was induced by immersing dorsal shaved skin in 99° C. water for 10 s using a synthetic foam template. The rats were then dried and placed over the heating mat. Rats were sacrificed at 6 hours after burn injury by overdose of the anaesthetic and serum samples obtained for analysis of organ injury and dysfunction.
Sham-operated rats underwent identical surgical procedures but without burn injury (immersed in room temperature water).

[1] = system: rats subjected to regional myocardial ischaemia and reperfusion; experiment: Regional myocardial ischaemia and reperfusion, artesunate dissolved in 10% DMSO; details: for Infarct size reduction: vs control; for infarct size (percentage of the AAR): control 59.8±3.2%, P<0.05
Protocol: (§1) Rats were anesthetised with thiopentone sodium (Intraval® 120 mg/kg i.p.). Anesthesia was maintained by supplementary injections of thiopentone sodium as required. The trachea was cannulated and the animals were ventilated with a Harvard ventilator (inspiratory oxygen concentration: 30%; 70 strokes/min, tidal volume: 8-10 ml/kg). Body temperature was maintained at 37+1° C. with the aid of a rectal probe thermometer attached to a homeothermic blanket unit (Harvard Apparatus Ltd., Edenbridge, Kent. U.K.). […] The right jugular vein was then cannulated for the administration of drugs and saline. A para-sternal thoracotomy was then performed, using an Electrosurgery device to cauterize the intercostals arteries before cutting through three ribs. The chest was retracted and pericardium dissected from the heart. The left anterior descending (LAD) coronary artery was isolated and a snare occluder was placed around the LAD. The retractor was then removed and the animal was allowed to stabilise for 15 min.
(§2) The occluder was tightened at time 0. After 25 min of LAD-occlusion, the occluder was released to allow reperfusion of the previously ischemic myocardium (2 h). Hemodynamic parameters were continuously monitored. Baseline readings were taken prior to treatment, and, myocardial IRI. The pressure rate index (PRI), a relative indicator of myocardial oxygen consumption was calculated as a product of the MAP (mmHg) and HR (beats/minute-bpm) and expressed in mm Hg bpm×10-3.
(§3) At the end of the 2 h reperfusion period, the LAD was re-occluded and 1 ml of Evans Blue dye (2% w/v) was injected into the animal, via the jugular vein. The Evans Blue dye stains the tissue it can circulate through, therefore the non-perfused vascular (occluded) tissue remains un-coloured. Each animal was killed with an over-dose of anaesthetic, the heart excised, and excess dye washed off. […] The ischaemic and non-ischaemic tissue was weighed, and the AAR expressed as a percentage of the left ventricle. The tissue from the AAR was cut into small pieces and incubated with p-nitroblue tetrazolium (NBT, 0.5 mg/ml) for 30 min at 37° C. NBT is a reducing agent that reacts with dehydrogenases present in viable (non-infarcted) tissue to produce a dark blue formazan. Infarcted tissue (non-viable) will not have dehydrogenase activity and will therefore fail to stain. The stained tissue was separated from the infarcted tissue, weighed, and the infarct size expressed as a percentage of the AAR.

[2] = system: rats subjected to regional myocardial ischaemia and reperfusion; experiment: Regional myocardial ischaemia and reperfusion, vehicle 5% sodium bicarbonate; details: for infarct size (percentage of the AAR): control 57.6±2.1%; for area at risk: compared to vehicle treated rats
Protocol: as §1, with “anaesthetised” for “anesthetised”, “Anaesthesia” for “Anesthesia”, “37±1°” for “37+1°”, “Kent,” for “Kent.”
as §2, with “Haemodynamic” for “Hemodynamic”, “ischaemia reperfusion (IR) injury.” for “IRI.”, “bpm×10^−3.” for “bpm×10-3.”
as §3
(§4) Sham-operated rats were subjected to surgical procedure without myocardial ischaemia and reperfusion.

[3] = system: rats subjected to regional myocardial ischaemia and reperfusion; experiment: Regional myocardial ischaemia and reperfusion, artesunate and dihydroartemisinin
Protocol: as §1, with “anaesthetised” for “anesthetised”, “Anaesthesia” for “Anesthesia”, “37±1°” for “37+1°”
as §2, with “Haemodynamic” for “Hemodynamic”, “ischaemia reperfusion (IR) injury.” for “IRI.”, “bpm×10^−3.” for “bpm×10-3.”
as §3, §4

[4] = bolus 10, 3, 1 mg/kg in 10% DMSO upon reperfusion, P>0.05 vs Control
[5] = 1 mg/kg i.v. upon reperfusion, vs control
[6] = bolus 0.3, 1 or 10 mg/kg upon reperfusion, P>0.05 vs Control
[7] = bolus 1 mg/kg upon reperfusion, P>0.05 vs Control

`C[C@H]1[C@H](OC(=O)CCC(=O)O)O[C@@H]2O[C@@]3(C)CC[C@H]4[C@H](C)CC[C@@H]1[C@@]24OO3` [artesunate] was tested, and the “rise in serum creatinine” value (burn injury rats; 6 h after burn, P<0.05) was “significantly attenuated”, the “rise in serum urea” value (burn injury rats; 6 h after burn, P<0.05) was “significantly attenuated” and the “rise in serum ALT” value (burn injury rats; P>0.05) was “no significant effect”. For the same compound, the “rise in serum AST” value (burn injury rats; P>0.05) was “no significant effect”, the Infarct size reduction ([1]; 1 mg/kg i.v. upon reperfusion) was 12% and the “infarct size (percentage of the AAR)” value ([1]; 1 mg/kg i.v. upon reperfusion) was 48.0±3.5%. For the same compound, the Infarct size reduction ([1]; 3 mg/kg i.v. upon reperfusion) was 13%, the “infarct size (percentage of the AAR)” value ([1]; 3 mg/kg i.v. upon reperfusion) was 46.9±2.3% and the “infarct size (percentage of the AAR)” value ([1]; 10 mg/kg i.v. bolus upon reperfusion, 25 min ischaemia, 2 h reperfusion) was 42.8±1.7%. The Infarct size reduction ([1]; 10 mg/kg i.v. upon reperfusion) was 28%, the “fall in mean arterial blood pressure caused by myocardial ischaemia and reperfusion” value (“fall” for short) [1, 4] was “did not attenuate” and the heart rate [1, 4] was “did not have a significant effect”. For the same compound, the “infarct size (percentage of the AAR)” value ([2]; 0.3 mg/kg i.v. bolus upon reperfusion) was 44.0±2.61%, the area at risk ([2]; 0.3 mg/kg) was “no significant effect” and the Infarct size reduction [2, 5] was 40%. For the same compound, the “infarct size (percentage of the AAR)” value ([2]; 1 mg/kg i.v. upon reperfusion, P<0.05) was 42.6±1.1%, the area at risk ([2]; 1 mg/kg) was “no significant effect” and the infarct size ([2]; 10 mg/kg i.v. upon reperfusion, P>0.05) was “no significant effect”. The area at risk ([2]; 10 mg/kg) was “no significant effect”, the “fall” value [2, 6] was “did not attenuate” and the heart rate [2, 6] was “did not have a significant effect”. For the same compound, the “infarct size (percentage of the AAR)” value ([3]; 1 mg/kg i.v. bolus upon reperfusion, from 59.8±3.2, P<0.05) was 36.0±1.1%, the Infarct size reduction [3, 5] was 40% and the area at risk ([3]; 1 mg/kg, compared to vehicle treated rats) was “no significant effect”. The “fall” value [3, 7] was “did not attenuate” and the heart rate [3, 7] was “did not have a significant effect”.
